This is an account of results in ChEMBL document CHEMBL4680225, “Design and development of ((4-methoxyphenyl)carbamoyl) (5-(5-nitrothiophen-2-yl)-1,3,4-thiadiazol-2-yl)amide analogues as Mycobacterium tuberculosis ketol-acid reductoisomerase inhibitors” (Eur J Med Chem, 2020).

Experiment [1] relates to Mycobacterium tuberculosis. The experiment can be described thus: Inhibition of N-terminal 6His-taggged Mycobacterium tuberculosis KARI expressed in Escherichia coli BL21 at 100 uM using 2-acetolactate as substrate preincubated for 30 mins followed by substrate addition in presence of NADPH relative to control.
Experiment [2] deals with Mycobacterium tuberculosis. The experiment can be described thus: Antibiofilm activity against Mycobacterium tuberculosis assessed as log reduction in bacterial growth at 10 uM measured after 1 week relative to control. It is filed as functional, H37Rv. The note with it: time 1 weeks.
Experiment [3] is described as follows: Protection index, ratio IC50 for HEK293 cells to MIC for antitubercular activity against Mycobacterium tuberculosis H37Rv.
A short description of experiment [4]: Inhibition of N-terminal 6His-taggged Mycobacterium tuberculosis KARI expressed in Escherichia coli BL21 using 2-acetolactate as substrate preincubated for 30 mins followed by substrate addition in presence of NADPH.
In a further experiment the test system is HEK293. The experiment can be described thus: Cytotoxicity against HEK293 cells assessed as reduction in cell viability measured after 48 hrs by MTT assay. It is filed as cell-based. The note with it: Homo sapiens, HEK293, 48 h.
For experiment [5], the system named is Mycobacterium tuberculosis. In words: Antitubercular activity against 6-weeks nutrient starved phase cultures of Mycobacterium tuberculosis H37Rv assessed as log reduction in bacterial growth at 10 uM treated for 7 days measured after 4 weeks relative to control. Format: functional. As to conditions: time 5 weeks.
Experiment [6] deals with Mycobacterium tuberculosis. In words: Antitubercular activity against Mycobacterium tuberculosis H37Rv infected in mouse primary macrophages assessed as log reduction in bacterial growth at 10 uM measured after 48 hrs relative to control. Format: functional, Primary macrophage.
In experiment [7] the test system is Mycobacterium tuberculosis. The experiment can be described thus: Antitubercular activity against Mycobacterium tuberculosis H37Rv measured after 1 week by microplate alamar blue assay. Format: functional. The note with it: 168 h, time 1 weeks. A general note: Alamar Blue is a resazurin reagent that responds to reducing activity.
The test system of experiment [8] is Mycobacterium tuberculosis. The experiment can be described thus: Antitubercular activity against early logarithmic phase cultures of Mycobacterium tuberculosis H37Rv at 1.56 to 100 uM. Format: functional, organism-based. The note with it: dose 1.56-100 µM, TDE = time-dependent effect.
Experiment [9] relates to Mycobacterium tuberculosis. In words: Antimycobacterial activity against dormant Mycobacterium tuberculosis H37Rv under nutrient deprived condition. As to conditions: TDE = time-dependent effect. It is filed as functional, organism-based.
Experiment [10] has as its system Mycobacterium tuberculosis. In words: Antimycobacterial activity against dormant Mycobacterium tuberculosis H37Rv incubated for 7 days under nutrient deprived condition. The note with it: time 7.0 day. Format: functional, organism-based.
Experiment [11] concerns Mycobacterium tuberculosis. The experiment can be described thus: Antitubercular activity against early logarithmic phase cultures of Mycobacterium tuberculosis H37Rv treated for 6 days and measured 2 days post last dose. Format: functional, organism-based. As to conditions: time 8.0 day.

Values after ≈ are worked out from the molar mass of the structure shown. Where only a bound is given, the exact number is not on record here.

For `COc1ccc(NC(=S)Nc2nnc(-c3ccc([N+](=O)[O-])s3)s2)cc1`, the inhibition in [1] was > 50%. Besides, the “log(activity)” value is on record as 1.5 in [2], 1.8 in experiment [5] and 2.2 in [6]. Besides, in [3], the PI is 87.4. In addition, the Ki in experiment [4] amounted to 9.27 µM. Also, the IC50 in the experiment with HEK293 came out at 68.2 µM. In addition, the MIC in experiment [7] was 0.78 µM (≈ 0.307 µg/mL).

With `NNC(=O)c1ccncc1` [ISONIAZID], the “log(activity)” value in experiment [2] was 1; in [5], 1.5; in experiment [6], 2.5. Besides, the MIC in experiment [7] was 0.4 µM (≈ 0.0549 µg/mL).

For `COc1c(N2C[C@@H]3CCCN[C@@H]3C2)c(F)cc2c(=O)c(C(=O)O)cn(C3CC3)c12` [MOXIFLOXACIN], the “log(activity)” value in experiment [2] is 1.8; in [5], 2.

As to `O=[N+]([O-])c1ccc(-c2nnc(NC(=S)Nc3ccc(Cl)cc3)s2)s1`, the inhibition in [1] is > 50%. For the same compound, the “log(activity)” value in experiment [2] is 1.2; in experiment [5] it was 1. For the same compound, the PI in [3] was 4.1. Besides, the Ki in experiment [4] was found to be 8.35 µM. Also, in the experiment with HEK293, the IC50 was 102 µM. In experiment [7], the MIC turned out to be 25 µM (≈ 9.95 µg/mL).

`CC(=O)c1ccc(S(=O)(=O)Nc2nnc(-c3ccc([N+](=O)[O-])o3)s2)cc1`: the figures for the Activity result in experiment [8], in experiment [9] and in [10] were “Tde”, “Tde” and “Dose-dependent effect”, respectively. Besides, the inhibition in experiment [1] was > 50%. For the same compound, the entries for the “log(activity)” value in [2], in [5] and in experiment [6] were 1.1, 2.1 and 1.6, respectively. Also, the PI in experiment [3] is listed as 36.6. Further, the Ki in [4] came to 4.72 µM. Also, in the experiment on HEK293, the IC50 was determined as 57.1 µM. This compound registered an MIC in [7] of 1.56 µM (≈ 0.615 µg/mL).

With `CO[C@H]1/C=C/O[C@@]2(C)Oc3c(C)c(O)c4c(O)c(c(/C=N/N5CCN(C)CC5)c(O)c4c3C2=O)NC(=O)/C(C)=C\C=C\[C@H](C)[C@H](O)[C@@H](C)[C@@H](O)[C@@H](C)[C@H](OC(C)=O)[C@@H]1C` [RIFAMPIN], the “log(activity)” value in experiment [2] is 0.9; in experiment [5] it was 1.8. 0.5 µM (≈ 0.411 µg/mL) was the least that counted as inhibitory in experiment [7] (MIC).

For the compound `COc1ccc(NC(=S)Nc2nnc(-c3ccc([N+](=O)[O-])o3)s2)cc1`, in [1], the inhibition is > 50%. In addition, the Activity result in experiment [9] was “Tde”; in [11], “Dose-dependent effect”; in experiment [10], “Dose-dependent effect”. Further, the “log(activity)” value in [2] is 1.8; in [5], 2.5; in [6] it was 1.7. For the same compound, in experiment [3], the PI was 110.2. Besides, the Ki in experiment [4] turned out to be 2.02 µM. Moreover, the IC50 with HEK293 was 86 µM. The MIC in experiment [7] amounted to 0.78 µM (≈ 0.294 µg/mL).

Regarding `CC[C@@H](CO)NCCN[C@@H](CC)CO` [ETHAMBUTOL], in experiment [7], the MIC is 7.63 µM (≈ 1.56 µg/mL).

`O=[N+]([O-])c1ccc(-c2nnc(NC(=S)Nc3ccc(F)cc3)s2)o1`: the inhibition in experiment [1] is > 50%. Moreover, the entries for the “log(activity)” value in experiment [2], in [5] and in experiment [6] were 1.3, 2.3 and 1.9, respectively. The Activity entry in experiment [11] was “Dose-dependent effect”. For the same compound, the PI in experiment [3] came out at 92.9. Besides, the Ki in [4] turned out to be 5.48 µM. Also, the IC50 with HEK293 turned out to be 72.5 µM. In addition, the MIC in experiment [7] stood at 0.78 µM (≈ 0.285 µg/mL).

Turning to `COc1ccc(NC(=O)Nc2nnc(-c3ccc([N+](=O)[O-])s3)s2)cc1`, in experiment [4], the Ki amounted to 3.06 µM.

As a reminder, the inhibition is how much of the control response was suppressed. Usually Ki stands for the equilibrium dissociation constant of an inhibitor or competing ligand from its target. By IC50 is commonly meant the concentration that gives 50% inhibition. The MIC is the smallest concentration in the dilution series that meets the test's criterion for growth inhibition.
